{"source": "patent US20240041840A1", "about": "(Areteia Therapeutics, Inc., priority 2020, published 2024)", "key": {"[1]": {"system": "subjects with eosinophilic chronic rhinosinusitis with nasal polyps", "conditions": "150 mg twice daily", "text": "Current asthma medications work in a variety of ways. […] The co-primary endpoints were change in AEC and change in total polyp score (TPS) from baseline to Month 6, with additional clinical and histologic endpoints assessed."}, "blood eosinophils [2]": {"system": "blood eosinophils", "conditions": "150 mg twice daily, after 6 months, open label, 16 subjects with eosinophilic chronic rhinosinusitis with nasal polyps"}, "blood eosinophils [3]": {"system": "blood eosinophils", "source_text": "The protocol enrolled symptomatic eosinophilic asthmatic subjects 18-75 years with moderate to greater disease severity as defined by GINA steps 3-5.\nThis clinical study is a randomized, double-blind, placebo-controlled, parallel-group, dose-ranging, multi-center study. Subjects received open-label placebo during the Run-in Period of the study, and subjects received double-blind study drug during the Primary Assessment Period of the study.\nDuration of Treatment and Follow-up included: 1) Run-in Period: Screening through initiation of Baseline. Subjects underwent Screening assessments to assess whether they satisfied the eligibility criteria. They participated in the Run-in Period (of at least 12 days duration) to confirm a stable asthma medication regimen and to assess adherence to the dosing schedule, after which eligible subjects were randomized. 2) Primary Assessment Period: Baseline through completion of Week 12. After the collection of all Baseline assessments, subjects began receiving study drug for 12 weeks. […] The Week 12 visit was the Primary Outcome Visit for the study. Subjects took the last dose of study drug at the Week 12 visit. 3) Eosinophil Recovery Period: Conclusion of Week 12 assessments through Week 24. Following the Primary Assessment Period, subjects entered the Eosinophil Recovery Period. […] Specific sites were designated to perform either Week 16 or Week 18 visits for subjects enrolled at their site. The Week 20 and Week 24 visits were at the site or at a designated remote laboratory facility.\nThe study population was limited to subjects with a physician diagnosis of asthma for ≥12 months and eligibility criteria described herein.\nThe primary endpoint of this study was the change in blood absolute eosinophil count from Baseline to Week 12. Absolute eosinophil counts were transformed to the log 10 scale. To avoid taking the log of zero, zeroes were replaced with 5 cells/μL in conventional units and 0.005×10^9/L in the International System of Units (SI), which is 50% of the lower limit of quantification. The geometric mean of all eosinophil counts obtained between the Screening and Baseline visits were used to establish the baseline eosinophil count used in the efficacy analyses.\nThe primary analysis was a mixed-effect model with repeated-measures (MMRM) with terms for baseline, the 3 level of GINA treatment step as a categorical variable, treatment, visit, treatment by visit interaction, and baseline by visit interaction as fixed effects, and subjects as a random effect. An unstructured covariance was used.\nEstimated LS means of treatment effects and estimated difference in treatment effects at each visit were back transformed to the original scale to present estimated geometric means for treatment effects and ratio of geometric means of treatment effects along with 95% CI."}, "[4]": {"system": "subjects with eosinophilic asthma", "conditions": "for Post-Bronchodilator FEV1 Reversibility % change, mean / Post-Bronchodilator FEV1 Reversibility % change, median / Post-Bronchodilator FEV1 Reversibility change, mean / Post-Bronchodilator FEV1 Reversibility change, median / Post-Bronchodilator FEV1 Reversibility observed, mean / Post-Bronchodilator FEV1 Reversibility observed, median: Week 12", "procedure": "Pulmonary function is measured by performing a spirometry, which measures forced expiratory volume in is (FEV1), the volume of air moved in the first second of exhalation, this is a well-accepted measure of asthma. Forced vital capacity (FVC) is the total volume of air exhaled during the entire forced expiratory volume (FEV) test. The FEV1/FVC ratio is a calculated measure that may provide a more specific measure of bronchoconstriction, independent of processes such as air trapping. Pulmonary function testing can be tested pre-bronchodilator (after waiting a sufficient time so that all bronchodilator medications have cleared) or post-bronchodilator, typically 15-30 minutes after inhaling a short-acting bronchodilator, such as albuterol. Bronchodilator reversibility (BDR) is calculated and assessed by analyzing FEV1 pre- and post-bronchodilator, and calculating the change both as absolute (ml) and percentage change.\nTable 10 provides the data for analyzing bronchodilator reversibility, the % improvement in FEV1 pre/post albuterol bronchodilator (same day). The study entry criteria required ≥12% and ≥200 mL at screening. These values are accepted in the diagnosis of asthma."}, "[5]": {"conditions": "12 subjects with a history of asthma"}, "[6]": {"conditions": "75 mg/day, Week 12, efficacy population N = 22"}, "[7]": {"conditions": "150 mg/day, Week 12, efficacy population N = 24"}, "[8]": {"conditions": "300 mg/day, Week 12, efficacy population N = 28"}}, "note": "Like-named read-outs stand apart in the source and are kept apart here."}
{"smiles": "CCCN[C@@H]1CCc2nc(N)sc2C1", "note": "[dexpramipexole, (6R)-2-amino-4,5,6,7-tetrahydro-6-(propylamino) benzothiazole]", "values": [{"measurement": "Total polyp score (TPS), mean", "setting": "[1]; 3 months (Baseline 5.29)", "result": 5.50}, {"measurement": "Other indices of chronic rhinosinusitis disease activity (SNOT-22, sinus CT score, Sniffin Sticks olfaction test)", "setting": "[1]; 6 month trial", "result": "not improved"}, {"measurement": "Total polyp score (TPS), mean", "setting": "[1]; 6 months (Baseline 5.29)", "result": 5.42}, {"measurement": "ACQ6 values", "setting": "[1]; [5]", "result": "unchanged"}, {"measurement": "FEV1 values", "setting": "[1]; [5]", "result": "unchanged"}, {"measurement": "Lowering of the AEC", "setting": "blood eosinophils [2]", "result": 94, "unit": "%"}, {"measurement": "Subjects with AEC ≤50 cells/pL, %", "setting": "blood eosinophils [3]; [6]", "result": "(22.7%)"}, {"measurement": "Subjects with AEC ≥50% reduction from Baseline to Week 12, %", "setting": "blood eosinophils [3]; [6]", "result": "(50.07%)"}, {"measurement": "Subjects with AEC ≤50 cells/pL, %", "setting": "blood eosinophils [3]; [7]", "result": "(37.5%)"}, {"measurement": "Subjects with AEC ≥50% reduction from Baseline to Week 12, %", "setting": "blood eosinophils [3]; [7]", "result": "(62.5%)"}, {"measurement": "Subjects with AEC ≤50 cells/pL, %", "setting": "blood eosinophils [3]; [8]", "result": "(42.9%)"}, {"measurement": "Subjects with AEC ≥50% reduction from Baseline to Week 12, %", "setting": "blood eosinophils [3]; [8]", "result": "(57.1%)"}, {"measurement": "Reduction in AEC", "setting": "blood eosinophils [3]; Week 12 compared with baseline, up to 300 mg/day", "result": "≤ 80", "unit": "%"}, {"measurement": "Dexpramipexole treated subjects with a greater than or equal to 50% reduction in AEC", "setting": "blood eosinophils [3]; all dose groups", "result": "approximately 60%"}, {"measurement": "Number of hematologic responders compared with placebo", "setting": "blood eosinophils [3]; blood eosinophil count of ≤50 cells/μL at week 12, dose-dependent", "result": "significantly increased"}, {"measurement": "Post-Bronchodilator FEV1 Reversibility % change, mean", "setting": "[4]; 75 mg/day", "result": "−58.7", "unit": "%"}, {"measurement": "Post-Bronchodilator FEV1 Reversibility % change, median", "setting": "[4]; 75 mg/day", "result": "−49.9", "unit": "%"}, {"measurement": "Post-Bronchodilator FEV1 Reversibility change, mean", "setting": "[4]; 75 mg/day", "result": -112, "unit": "mL"}, {"measurement": "Post-Bronchodilator FEV1 Reversibility change, median", "setting": "[4]; 75 mg/day", "result": -55.0, "unit": "mL"}, {"measurement": "Post-Bronchodilator FEV1 Reversibility observed, mean", "setting": "[4]; 75 mg/day", "result": 264, "unit": "mL"}, {"measurement": "Post-Bronchodilator FEV1 Reversibility observed, median", "setting": "[4]; 75 mg/day", "result": 235, "unit": "mL"}, {"measurement": "Post-Bronchodilator FEV1 Reversibility % change, mean", "setting": "[4]; 150 mg/day", "result": "−39.8", "unit": "%"}, {"measurement": "Post-Bronchodilator FEV1 Reversibility % change, median", "setting": "[4]; 150 mg/day", "result": "−9.68", "unit": "%"}, {"measurement": "Post-Bronchodilator FEV1 Reversibility change, mean", "setting": "[4]; 150 mg/day", "result": -72.3, "unit": "mL"}, {"measurement": "Post-Bronchodilator FEV1 Reversibility change, median", "setting": "[4]; 150 mg/day", "result": 0, "unit": "mL"}, {"measurement": "Post-Bronchodilator FEV1 Reversibility observed, mean", "setting": "[4]; 150 mg/day", "result": 279, "unit": "mL"}, {"measurement": "Post-Bronchodilator FEV1 Reversibility observed, median", "setting": "[4]; 150 mg/day", "result": 235, "unit": "mL"}, {"measurement": "Post-Bronchodilator FEV1 Reversibility % change, mean", "setting": "[4]; 300 mg/day", "result": "−19.6", "unit": "%"}, {"measurement": "Post-Bronchodilator FEV1 Reversibility % change, median", "setting": "[4]; 300 mg/day", "result": "−19.0", "unit": "%"}, {"measurement": "Post-Bronchodilator FEV1 Reversibility change, mean", "setting": "[4]; 300 mg/day", "result": -109, "unit": "mL"}, {"measurement": "Post-Bronchodilator FEV1 Reversibility change, median", "setting": "[4]; 300 mg/day", "result": -50.0, "unit": "mL"}, {"measurement": "Post-Bronchodilator FEV1 Reversibility observed, mean", "setting": "[4]; 300 mg/day", "result": 336, "unit": "mL"}, {"measurement": "Post-Bronchodilator FEV1 Reversibility observed, median", "setting": "[4]; 300 mg/day", "result": 290, "unit": "mL"}, {"measurement": "Bronchodilator reversibility", "setting": "[4]; Week 12, 3 DEX arms vs. placebo", "result": "preserved"}]}
